Where only a bound is given, the exact number is not on record here.

For one test, the system named is RBL2H3 cells. Put plainly: Degranulation assay: β-hexosaminidase release during immune complex mediated degranulation. Format: cell-based, rat. The conditions noted are these: Rattus norvegicus, RBL-2H3, Assay Protocol B (96 well format); for inhibition at 1 µM: read-out: Degranulation % inhibition at 1 μM; for EC50: read-out: Degranulation EC50. An outline of the steps:
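Fluorometric β-NAG read-out (Ex 355, Em 460 nm; 30 min, RT) of supernatant after DNP-BSA stimulation (45–60 min) of anti-DNP IgE-sensitized RBL2H3 cells. Compounds (0.5% DMSO) added 15 min before antigen; degranulation expressed as % β-hexosaminidase release or inhibition.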

The target of another test is JAK2 (Homo sapiens (Human), UniProt O60674). In words: Inhibition of enzymatic JAK2 kinase activity (TR-FRET). The conditions noted are these: read-out: IC50 JAK. Format: biochemical. An outline of the steps: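 TR-FRET read-out (Eu antibody donor, Ulight poly Glu-Tyr acceptor, 665/615 nm ratio) after a 60 min RT kinase reaction with ATP, begun following 30 min compound–enzyme preincubation. Stopped by EDTA; inhibition expressed as 100 minus % activity of positive control.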

The target of test [1] is Syk (356-635 amino acids) catalytic domain (Homo sapiens (Human), UniProt P43405). In words: Inhibition of enzymatic Syk kinase activity (radiometric). It is filed as biochemical. The conditions noted are these: read-out: IC50 Syk. An outline of the steps:
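Radiometric filter-binding format: 32P transfer from γ-32P-ATP onto pG4T, scintillation-counted after acid washes of P81 paper. Syk kinase domain (356-635), 0.035–7.5 ng per reaction, was exposed to compound for 30 minutes at room temperature before a 10-minute, 30° C. reaction with ATP (100 μM stock). Inhibition derived from counts with versus without compound.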

JAK2, sequence (O60674 808-1132): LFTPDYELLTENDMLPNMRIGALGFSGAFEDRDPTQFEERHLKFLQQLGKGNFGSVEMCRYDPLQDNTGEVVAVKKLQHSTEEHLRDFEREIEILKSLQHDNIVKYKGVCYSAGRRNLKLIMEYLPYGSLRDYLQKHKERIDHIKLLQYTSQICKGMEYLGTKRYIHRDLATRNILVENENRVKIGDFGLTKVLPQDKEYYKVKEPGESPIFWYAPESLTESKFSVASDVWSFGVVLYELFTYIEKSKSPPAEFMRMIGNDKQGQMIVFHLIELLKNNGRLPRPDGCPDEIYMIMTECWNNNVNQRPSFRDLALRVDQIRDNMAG

For the compound `CCN(CC)CCOc1ccc(Nc2nc(N3CCCCCC3)nc3cn[nH]c(=O)c23)cc1` [Example 159, 2-(azepan-1-yl)-4-((4-(2-(diethylamino)ethoxy)phenyl)amino)pyrimido[4,5-d]pyridazin-5(6H)-one], in the test with RBL2H3 cells, the inhibition at 1 µM stood at 68% and the EC50 was 56 nM. For the same compound, at JAK2, the IC50 is less than 10 nM. The IC50 in test [1] was less than 50 nM.

As for `CN(c1nc(Nc2ccc(N3CCC(CC(=O)O)CC3)cc2)c2c(=O)[nH]ncc2n1)C1CCCCC1` [Example 161, 2-(1-(4-((2-(cyclohexyl(methyl)amino)-5-oxo-5,6-dihydropyrimido[4,5-d]pyridazin-4-yl)amino)phenyl)piperidin-4-yl)acetic acid], the inhibition at 1 µM in the test with RBL2H3 cells turned out to be 74%. Moreover, in the test with RBL2H3 cells, the EC50 was determined as 39 nM. For the same compound, the IC50 was less than 10 nM at JAK2 and less than 50 nM in test [1].

Consider `N#CCC1CCN(c2nc(Nc3ccc(N4CCN(CC(=O)O)CC4)cc3)c3c(=O)[nH]ncc3n2)CC1` [Example 162, 2-(4-(4-((2-(4-(cyanomethyl)piperidin-1-yl)-5-oxo-5,6-dihydropyrimido[4,5-d]pyridazin-4-yl)amino)phenyl)piperazin-1-yl)acetic acid], for which the inhibition at 1 µM in the test with RBL2H3 cells amounted to 27%. The EC50 in the test with RBL2H3 cells was determined as 281 nM. The IC50 (at JAK2; in test [1]) was less than 10 nM each time.

`O=c1[nH]ncc2nc(N3CCCCCC3)nc(Nc3ccc(OCCN4CCC(O)CC4)cc3)c12` [Example 172, 2-(azepan-1-yl)-4-((4-(2-(4-hydroxypiperidin-1-yl)ethoxy)phenyl)amino)pyrimido[4,5-d]pyridazin-5(6H)-one]: the inhibition at 1 µM in the test with RBL2H3 cells turned out to be 50%. In the test with RBL2H3 cells, the EC50 was determined as 101 nM. The IC50 on JAK2 was less than 10 nM; in test [1], less than 50 nM.

As for `O=c1[nH]ncc2nc(N3CCCCCC3)nc(Nc3ccc(CCCN4CCNCC4)cc3)c12` [Example 173, 2-(azepan-1-yl)-4-((4-(3-(piperazin-1-yl)propyl)phenyl)amino)pyrimido[4,5-d]pyridazin-5(6H)-one], the inhibition at 1 µM in the test with RBL2H3 cells was determined as 66%. Further, the EC50 in the test with RBL2H3 cells is 29 nM. Also, the IC50 (on JAK2; in test [1]) was less than 50 nM each time.

Regarding `CCN1CCN(c2ccc(Nc3nc(N4CCCCCC4)nc4cn[nH]c(=O)c34)cc2)CC1=O` [Example 175, 2-(azepan-1-yl)-4-((4-(4-ethyl-3-oxopiperazin-1-yl)phenyl)amino) pyrimido[4,5-d]pyridazin-5(6H)-one], in the test on RBL2H3 cells, the inhibition at 1 µM worked out at 98% and the EC50 was 6 nM. Further, on JAK2, the IC50 is less than 10 nM. Besides, in test [1], the IC50 was less than 10 nM.

Consider `CCN1CCN(c2ccc(Nc3nc(N4CCC(CC#N)CC4)nc4cn[nH]c(=O)c34)cc2)CC1=O` [Example 178, 2-(1-(4-((4-(4-ethyl-3-oxopiperazin-1-yl)phenyl)amino)-5-oxo-5,6-dihydropyrimido[4,5-d]pyridazin-2-yl)piperidin-4-yl)acetonitrile], for which the inhibition at 1 µM in the test on RBL2H3 cells was 73%. The EC50 with RBL2H3 cells came to 39 nM. Moreover, the IC50 (at JAK2; in test [1]) was less than 10 nM throughout.

As to `O=c1[nH]ncc2nc(N3CCCCCC3)nc(Nc3ccc(CCCN4CCC(O)CC4)cc3)c12` [Example 179, 2-(azepan-1-yl)-4-((4-(3-(4-hydroxypiperidin-1-yl)propyl)phenyl)amino)pyrimido[4,5-d]pyridazin-5(6H)-one], in the test on RBL2H3 cells, the inhibition at 1 µM came out at 45% and the EC50 amounted to 9 nM. In addition, the IC50 on JAK2 was less than 10 nM. Also, in test [1], the IC50 was less than 10 nM.

`CCN1CCN(c2ccc(Nc3nc(N4CCCCCC4)nc4cn[nH]c(=O)c34)cc2)CC1` [Example 180, 2-(azepan-1-yl)-4-((4-(4-ethylpiperazin-1-yl)phenyl)amino)pyrimido[4,5-d]pyridazin-5(6H)-one]: in the test on RBL2H3 cells, the inhibition at 1 µM came out at 70% and the EC50 was found to be 3 nM. Further, the IC50 on JAK2 is less than 10 nM. In addition, the IC50 in test [1] was less than 10 nM.

Consider `O=c1[nH]ncc2nc(N3CCCCC3)nc(Nc3ccc(OCCN4CCC(O)CC4)cc3)c12` [Example 183, 4-((4-(2-(4-hydroxypiperidin-1-yl)ethoxy)phenyl)amino)-2-(piperidin-1-yl)pyrimido[4,5-d]pyridazin-5(6H)-one], for which, in the test with RBL2H3 cells, the inhibition at 1 µM worked out at 41% and the EC50 was 83 nM. For the same compound, the IC50 at JAK2 was less than 50 nM. In addition, the IC50 in test [1] was less than 10 nM.

Regarding `CC1(O)CCN(CCOc2ccc(Nc3nc(N4CCCCCC4)nc4cn[nH]c(=O)c34)cc2)CC1` [Example 184, 2-(azepan-1-yl)-4-((4-(2-(4-hydroxy-4-methylpiperidin-1-yl)ethoxy)phenyl)amino)pyrimido[4,5-d]pyridazin-5(6H)-one], the inhibition at 1 µM in the test with RBL2H3 cells is 65%. In addition, in the test with RBL2H3 cells, the EC50 was 33 nM. Moreover, the IC50 (on JAK2; in test [1]) was less than 10 nM in each case.

For the compound `CC1(O)CCN(CCOc2ccc(Nc3nc(N4CCC(CC#N)CC4)nc4cn[nH]c(=O)c34)cc2)CC1` [Example 185, 2-(1-(4-((4-(2-(4-hydroxy-4-methylpiperidin-1-yl)ethoxy)phenyl)amino)-5-oxo-5,6-dihydropyrimido[4,5-d]pyridazin-2-yl)piperidin-4-yl)acetonitrile], in the test on RBL2H3 cells, the inhibition at 1 µM stood at 83% and the EC50 stood at 29 nM. In addition, at JAK2, the IC50 is less than 50 nM. For the same compound, the IC50 in test [1] was less than 10 nM.

For the compound `O=c1[nH]ncc2nc(N3CCCCCC3)nc(Nc3ccc(N4CCC(O)CC4)cc3)c12` [Example 186, 2-(azepan-1-yl)-4-((4-(4-hydroxypiperidin-1-yl)phenyl)amino) pyrimido[4,5-d]pyridazin-5(6H)-one], in the test on RBL2H3 cells, the inhibition at 1 µM amounted to 93% and the EC50 was determined as 10 nM. For the same compound, the IC50 at JAK2 is less than 100 nM. In addition, the IC50 in test [1] was less than 10 nM.

With `CCN1CCN(c2ccc(Nc3nc(N4CCC(CC#N)CC4)nc4cn[nH]c(=O)c34)cc2)CC1` [Example 187, 2-(1-(4-((4-(4-ethylpiperazin-1-yl)phenyl)amino)-5-oxo-5,6-dihydropyrimido[4,5-d]pyridazin-2-yl)piperidin-4-yl)acetonitrile], in the test with RBL2H3 cells, the inhibition at 1 µM turned out to be 100% and the EC50 was determined as 12 nM. At JAK2, the IC50 is less than 50 nM. The IC50 in test [1] is less than 10 nM.

For the compound `O=c1[nH]ncc2nc(N3CCCCCC3)nc(Nc3ccc(N4CCNCC4)cc3)c12` [Example 192, 2-(azepan-1-yl)-4-((4-(piperazin-1-yl)phenyl)amino)pyrimido[4,5-d]pyridazin-5(6H)-one], in the test on RBL2H3 cells, the inhibition at 1 µM came to 82% and the EC50 was 27 nM. Further, the IC50 at JAK2 is less than 10 nM. The IC50 in test [1] is less than 10 nM.

In the case of `N#CCC1CCN(c2nc(Nc3ccc(N4CCNCC4)cc3)c3c(=O)[nH]ncc3n2)CC1` [Example 193, 2-(1-(5-oxo-4-((4-(piperazin-1-yl)phenyl)amino)-5,6-dihydropyrimido[4,5-d]pyridazin-2-yl)piperidin-4-yl)acetonitrile], the inhibition at 1 µM with RBL2H3 cells stood at 93%. Further, in the test on RBL2H3 cells, the EC50 came out at 17 nM. Besides, the IC50 (on JAK2; in test [1]) was less than 10 nM in each case.

As to `N#CCC1CCN(c2nc(Nc3ccc(OCCN)cc3)c3c(=O)[nH]ncc3n2)CC1` [Example 200, 2-(1-(4-((4-(2-aminoethoxy)phenyl)amino)-5-oxo-5,6-dihydropyrimido[4,5-d]pyridazin-2-yl)piperidin-4-yl) acetonitrile], the inhibition at 1 µM in the test on RBL2H3 cells amounted to 71%. Also, the EC50 in the test with RBL2H3 cells is 66 nM. For the same compound, the IC50 on JAK2 was less than 50 nM; in test [1], less than 10 nM.

For `O=c1[nH]ncc2nc(N3CCCCCC3)nc(Nc3ccc(CCN4CCC(O)CC4)cc3)c12` [Example 201, 2-(azepan-1-yl)-4-((4-(2-(4-hydroxypiperidin-1-yl)ethyl)phenyl)amino)pyrimido[4,5-d]pyridazin-5(6H)-one], in the test with RBL2H3 cells, the inhibition at 1 µM turned out to be 88% and the EC50 stood at 31 nM. Besides, on JAK2, the IC50 was less than 10 nM. Moreover, the IC50 in test [1] is less than 10 nM.

Regarding `O=C(O)CCN1CCN(c2ccc(Nc3nc(N4CCCCCC4)nc4cn[nH]c(=O)c34)cc2)CC1` [Example 208, 3-(4-(4-((2-(azepan-1-yl)-5-oxo-5,6-dihydropyrimido[4,5-d]pyridazin-4-yl)amino)phenyl)piperazin-1-yl) propanoic acid], in the test with RBL2H3 cells, the inhibition at 1 µM was 21% and the EC50 was found to be 14 nM. Also, the IC50 at JAK2 is less than 10 nM. In addition, the IC50 in test [1] was less than 10 nM.

Consider `CC1(O)CCN(CCc2ccc(Nc3nc(N4CCCCCC4)nc4cn[nH]c(=O)c34)cc2)CC1` [Example 210, 2-(azepan-1-yl)-4-((4-(2-(4-hydroxy-4-methylpiperidin-1-yl)ethyl)phenyl)amino) pyrimido[4,5-d]pyridazin-5(6H)-one], for which, in the test on RBL2H3 cells, the inhibition at 1 µM amounted to 79%. In the test on RBL2H3 cells, the EC50 worked out at 22 nM. Moreover, the IC50 at JAK2 is less than 10 nM; in test [1] it was less than 50 nM.

In the case of `O=c1[nH]ncc2nc(N3CCCCCC3)nc(Nc3ccc(CCN4CCN(CCO)CC4)cc3)c12` [Example 211, 2-(azepan-1-yl)-4-((4-(2-(4-(2-hydroxyethyl)piperazin-1-yl)ethyl)phenyl)amino)pyrimido[4,5-d]pyridazin-5(6H)-one], in the test with RBL2H3 cells, the inhibition at 1 µM was determined as 53% and the EC50 came out at 49 nM. Further, the IC50 on JAK2 is less than 50 nM. The IC50 in test [1] was less than 50 nM.

Broadly, the inhibition is the drop in the measured response relative to a control, in per cent. The EC50 is the concentration at which the effect is half-maximal. For orientation: IC50 means the concentration needed to halve the response being measured.
